Tested on: serum lipids and serum lipid hydroperoxide
Experiment: Pharmacological test method A for anti-hyperlipidemic activity (serum lipids, 2 weeks feeding)
Assay type: in vivo, male Wistar strain rats
Details: for AI [(TC - HDL-C)/(HDL-C)] / HDL-C in serum / LPO in serum / PL in serum / TC in serum / TG in serum: 1% in hyperlipidemic diet, 2 weeks; for AI % of diff. / AI Diff. / HDL-C % of diff. / HDL-C Diff. / LPO % of diff. / LPO Diff. / PL Diff. / TC % of diff. / TC Diff. / TG % of diff. / TG Diff. / PL % of diff.: versus control group
Summary of the method: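 Male Wistar rats (100±lg, 10 per group) fed 10 g/day for 2 weeks of a 1% cholesterol/0.5% cholic acid diet, test groups with 1% each of cycloartenol, 24-methylenecycloartanol and cyclobranol. After 16 h fast, aortic blood serum assayed enzymatically/colorimetrically for TC, HDL-C, TG, PL, LPO.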

SMILES | AI [(TC - HDL-C)/(HDL-C)] | HDL-C in serum [mg/dL] | LPO in serum [nmol/mL] | PL in serum [mg/dL] | TC in serum [mg/dL] | TG in serum [mg/dL] | AI % of diff. [%] | AI Diff. | HDL-C % of diff. | HDL-C Diff. | LPO % of diff. [%] | LPO Diff. [nmol/mL] | PL Diff. [mg/dL] | TC % of diff. [%] | TC Diff. [mg/dL] | TG % of diff. [%] | TG Diff. [mg/dL] | PL % of diff. [%]
C=C(CCC(C)C1CCC2(C)C3CCC4C(C)(C)C(OC(=O)C=Cc5cccc(N)c5)CCC45CC35CCC12C)C(C)C (stereo not shown) [Example 112, 24-methylenecycloartanyl ester of m-aminocinnamic acid] | 3.624 | 46.8 | 2.16 | 150.4 | 216.4 | 28.5 | -53.8 | -4.216 | +26.8% | +9.9 mg/dl | -22.9 | -0.64 | -15.2 | -33.7 | -109.8 | -16.2 | -5.5 | 
CC(C)=C(C)CCC(C)C1CCC2(C)C3CCC4C(C)(C)C(OC(=O)/C=C/c5ccc(O)c(O)c5)CCC45CC35CCC12C (stereo not shown) [Example 32, cyclobranyl-3,4-dihydroxycinnamate] | 1.135 | 89.2 | 2.06 | 168.2 | 190.4 | 40.7 | -32.6 |  | +10.2% | +8.3 mg/dl | -10.7 | -0.25 | -11.5 | -12.3 | -26.7 | -4.8 | -2.1 | -6.4
C=C(CCC(C)C1CCC2(C)C3CCC4C(C)(C)C(OC(=O)C=Cc5ccc(OC(C)=O)c(OCC)c5)CCC45CC35CCC12C)C(C)C (stereo not shown) [Example 72, 24-methylenecycloartanyl-4-acetoxy-3-ethoxycinnamate] | 1.091 | 89.2 | 2.07 | 160.3 | 186.5 | 41.8 | -35.2 | -0.593 | +10.2% | +8.3 mg/dl | -10.4 | -0.24 | -19.4 | -14.1 | -30.6 | -2.4 | -1.0 | -10.8
COc1ccc(C(=O)OC2CCC34CC35CCC3(C)C(C(C)CCC=C(C)C)CCC3(C)C5CCC4C2(C)C)cc1 (stereo not shown) [Example 14, cycloartenyl-p-methoxybenzoate] | 1.275 | 64.1 | 1.81 | 120.9 | 145.8 | 25.4 | -27.8 | -0.492 | +6.5% | +3.9 mg/dl | -28.5 | -0.72 | -15.8 | -12.5 | -20.8 | -6.6 | -1.8 | -11.6
C=C(CCC(C)C1CCC2(C)C3CCC4C(C)(C)C(OC(=O)c5ccc(O)c(OC)c5)CCC45CC35CCC12C)C(C)C (stereo not shown) [Example 86, 24-Methylenecycloartanyl ester of 4-hydroxy-3-methoxybenzoic acid] | 0.802 | 91.9 | 2.06 | 163.2 | 165.6 | 33.1 | -20.0 | -0.200 | -4.5% | -4.3 mg/dL | -11.6 | -0.27 | -17.7 | -14.0 | -27.0 | -0.3 | -0.1 | -9.8
